The supplement of paper PMC7840683
Where a name gives a salt, the structure may show the parent alone.

Tested on: HepaRG
Experiment: LDH release cytotoxicity, % of total lysis control; higher = more cytotoxic
Conditions: 48 h
In short: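 Single-lot HepaRG cells in collagen I-coated 96-well plates were treated for 48 h in serum-free induction medium containing 0.5% DMSO with test chemicals in eight-point half-log series up to 100 µM. For total lysis, wells received 0.1% Triton X. LDH in 50 µL spent medium was assayed by resorufin fluorescence with CytoTox-ONE. Percent cytotoxicity was normalized to the on-plate vehicle and total lysis controls, with duplicates averaged.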

Oc1cc2ccccc2c2ccccc12 [9-Phenanthrol]
Conditions | LDH release cytotoxicity [%]
0.03162 µM | -1.97
0.1 µM | -2.29
0.3162278 µM | -2.11
1 µM | -2.1
3.16228 µM | -2.21
10 µM | -2.2
31.6228 µM | -2.94
100 µM | 0.0725

CCCCCCCCN(C)C [N,N-Dimethyloctylamine]
Conditions | LDH release cytotoxicity [%]
0.031939 µM | -1.23
0.101 µM | -0.78
0.31939 µM | -2.01
1.01 µM | -1.97
3.1939004 µM | -1.09
10.1 µM | -1.35
31.939 µM | -0.557
101 µM | 2.22

CN(C)C1C(=O)C(C(N)=O)C(=O)C2(O)C(=O)C3C(=O)c4c(O)cccc4C(C)(O)C3C(O)C12 (centres undefined) [Oxytetracycline dihydrate]
Conditions | LDH release cytotoxicity [%]
0.03162 µM | -2.54
0.1 µM | -1.62
0.3162278 µM | -1.71
1 µM | -1.95
3.16228 µM | -1.59
10 µM | -2.1
31.6228 µM | -3.27
100 µM | -4

c1ccc2ccccc2c1 [Naphthalene]
Conditions | LDH release cytotoxicity [%]
0.03162 µM | -0.307
0.1 µM | -1.13
0.3162278 µM | -0.248
1 µM | -0.532
3.16228 µM | 0.237
10 µM | 1.23
31.6228 µM | 0.531
100 µM | 2.74

OCC1OC(OC2(CO)OC(CO)C(O)C2O)C(O)C(O)C1O (centres undefined) [Sucrose]
Conditions | LDH release cytotoxicity [%]
0.03162 µM | -1.56
0.1 µM | -2.84
0.3162278 µM | -1.3
1 µM | -1.84
3.16228 µM | -2
10 µM | -0.48
31.6228 µM | -0.542
100 µM | 1.54

CCCCSP(=O)(SCCCC)SCCCC [Tribufos]
Conditions | LDH release cytotoxicity [%]
0.03162 µM | -1.39
0.1 µM | -0.774
0.3162278 µM | -1.31
1 µM | -1.25
3.16228 µM | -0.815
10 µM | -0.0795
31.6228 µM | -0.648
100 µM | 0.564

COC(=O)NS(=O)(=O)c1ccc(N)cc1 [Asulam]
Conditions | LDH release cytotoxicity [%]
0.03162 µM | -0.269
0.1 µM | -1.42
0.3162278 µM | -0.821
1 µM | -0.262
3.16228 µM | -1.05
10 µM | -0.725
31.6228 µM | -0.233
100 µM | 0.635

COP(=S)(OC)SCn1nnc2ccccc2c1=O [Azinphos-methyl]
Conditions | LDH release cytotoxicity [%]
0.03162 µM | -0.213
0.1 µM | -0.757
0.3162278 µM | -1.67
1 µM | -2.01
3.16228 µM | -0.975
10 µM | 0.0858
31.6228 µM | -0.844
100 µM | 0.533

CC(C)(C)c1cccc(C(C)(C)C)c1O [2,6-Di-tert-butylphenol]
Conditions | LDH release cytotoxicity [%]
0.03162 µM | -1.46
0.1 µM | -2.07
0.3162278 µM | -1.81
1 µM | -2.85
3.16228 µM | -2.37
10 µM | -2.01
31.6228 µM | -2.37
100 µM | -2.35

COCCOc1cc2cc(C(=O)NC3CCN(C(C)C)CC3)n(CC(=O)Nc3ccc(Cl)cn3)c2cn1
Conditions | LDH release cytotoxicity [%]
0.03162 µM | -0.433
0.1 µM | -0.956
0.3162278 µM | -0.802
1 µM | -1.56
3.16228 µM | -0.955
10 µM | -0.194
31.6228 µM | 13.4
100 µM | 96.77

CNC(=O)Oc1cccc(N=CN(C)C)c1 [Formetanate hydrochloride]
Conditions | LDH release cytotoxicity [%]
0.0317809 µM | -8.9
0.1005 µM | -7.63
0.317809 µM | -7.59
1.005 µM | -7.51
3.17809 µM | -6.9
10.05 µM | -5.88
31.7809 µM | -6.15
100.5 µM | -5.62

CNC1CCC(c2ccc(Cl)c(Cl)c2)c2ccc(S(N)(=O)=O)cc21 (centres undefined)
Conditions | LDH release cytotoxicity [%]
0.03162 µM | -1.64
0.1 µM | -2.15
0.3162278 µM | -1.81
1 µM | -1.88
3.16228 µM | -1.12
10 µM | -0.337
31.6228 µM | 15
100 µM | 81.4

O=C(OCCCCCOC(=O)c1ccccc1)c1ccccc1 [Pentane-1,5-diyl dibenzoate]
Conditions | LDH release cytotoxicity [%]
0.03162 µM | -0.742
0.1 µM | -0.929
0.3162278 µM | -1.73
1 µM | -1.19
3.16228 µM | -0.893
10 µM | -0.935
31.6228 µM | -0.87
100 µM | -0.0778

CCCC1COC(Cn2cncn2)(c2ccc(Cl)cc2Cl)O1 (centres undefined) [Propiconazole]
Conditions | LDH release cytotoxicity [%]
0.03162 µM | -1.15
0.1 µM | -1.4
0.3162278 µM | -1.43
1 µM | -0.956
3.16228 µM | -0.902
10 µM | -0.927
31.6228 µM | 12.7
100 µM | 26.8

O=C(O)C1(c2ccc3c(c2)OCC(Cc2ccc(-c4ccccc4)cc2)C3O)CCCC1 (centres undefined)
Conditions | LDH release cytotoxicity [%]
0.03162 µM | -0.731
0.1 µM | -0.599
0.3162278 µM | -0.19
1 µM | -0.676
3.16228 µM | -0.648
10 µM | 0.306
31.6228 µM | 2.92
100 µM | 72.9

CCCN(CC)CC1COC2(CCC(C(C)(C)C)CC2)O1 (centres undefined) [Spiroxamine]
Conditions | LDH release cytotoxicity [%]
0.03162 µM | -0.782
0.1 µM | -1.02
0.3162278 µM | 0.233
1 µM | -0.292
3.16228 µM | 0.829
10 µM | 0.738
31.6228 µM | 1.08
100 µM | 1.62

NCc1cccc(C2CCN(C(=O)c3ccc(C#Cc4ccccc4F)o3)CC2)c1 [AVE5638]
Conditions | LDH release cytotoxicity [%]
0.03162 µM | 0.161
0.1 µM | 0.0623
0.3162278 µM | 0.0711
1 µM | 0.0437
3.16228 µM | 0.441
10 µM | 0.359
31.6228 µM | 3.69
100 µM | 65.1

CC(C)=CCC/C(C)=C\CO [(2Z)-3,7-Dimethylocta-2,6-dien-1-ol]
Conditions | LDH release cytotoxicity [%]
0.03162 µM | -0.521
0.1 µM | -0.112
0.3162278 µM | 0.637
1 µM | 0.207
3.16228 µM | 0.25
10 µM | 0.588
31.6228 µM | 0.393
100 µM | 1.1
